Test results published in patent US20230002375A1, “HYDROPYRAZINO[1,2-B]ISOQUINOLINE COMPOUNDS FOR THE TREATMENT OF AUTOIMMUNE DISEASE” (Hoffmann-La Roche Inc., priority 2019, published 2023).

Target: T1, hERG K+ channel (Homo sapiens, UniProt Q12809)
T1 construct: expressed in transfected cells; host or cells: CHO (Chinese hamster ovary) cells, CHOhERG
Experiment: hERG channel inhibition assay (patch-clamp, CHOhERG cells)
Assay type: cell-based
Settings: whole-cell patch-clamp; for IC20: human, CHO cells stably expressing hERG
Procedure: hERG Channel Inhibition Assay
The hERG K^+ channels were cloned in humans and stably expressed in a CHO (Chinese hamster ovary) cell line. CHOhERG cells were used for patch-clamp (voltage-clamp, whole-cell) experiments. Cells were stimulated by a voltage pattern to activate hERG channels and conduct IKhERG Currents (rapid delayed outward rectifier potassium current of the hERG channel). After the cells were stabilized for a few minutes, the amplitude and kinetics of IKhERG were recorded at a stimulation frequency of 0.1 Hz (6 bpm). Thereafter, the test compound was added to the preparation at increasing concentrations. For each concentration, an attempt was made to reach a steady-state effect, usually, this was achieved within 3-10 min at which time the next highest concentration was applied. The amplitude and kinetics of IKhERG are recorded in each concentration of the drug which were compared to the control values (taken as 100%). (references: Redfern W S, Carlsson L, Davis A S, Lynch W G, MacKenzie I, Palethorpe S, Siegl P K, Strang I, Sullivan A T, Wallis R, Camm A J, Hammond T G. 2003; Relationships between preclinical cardiac electrophysiology, clinical QT interval prolongation and torsade de pointes for a broad range of drugs: evidence for a provisional safety margin in drug development. Cardiovasc. Res. 58:32-45, Sanguinetti M C, Tristani-Firouzi M. 2006; hERG potassium channels and cardiac arrhythmia. Nature 440:463-469, Webster R, Leishman D, Walker D. 2002; Towards a drug concentration effect relationship for QT prolongation and torsades de pointes. Curr. Opin. Drug Discov. Devel. 5:116-26).

T1 sequence (Q12809 whole entry): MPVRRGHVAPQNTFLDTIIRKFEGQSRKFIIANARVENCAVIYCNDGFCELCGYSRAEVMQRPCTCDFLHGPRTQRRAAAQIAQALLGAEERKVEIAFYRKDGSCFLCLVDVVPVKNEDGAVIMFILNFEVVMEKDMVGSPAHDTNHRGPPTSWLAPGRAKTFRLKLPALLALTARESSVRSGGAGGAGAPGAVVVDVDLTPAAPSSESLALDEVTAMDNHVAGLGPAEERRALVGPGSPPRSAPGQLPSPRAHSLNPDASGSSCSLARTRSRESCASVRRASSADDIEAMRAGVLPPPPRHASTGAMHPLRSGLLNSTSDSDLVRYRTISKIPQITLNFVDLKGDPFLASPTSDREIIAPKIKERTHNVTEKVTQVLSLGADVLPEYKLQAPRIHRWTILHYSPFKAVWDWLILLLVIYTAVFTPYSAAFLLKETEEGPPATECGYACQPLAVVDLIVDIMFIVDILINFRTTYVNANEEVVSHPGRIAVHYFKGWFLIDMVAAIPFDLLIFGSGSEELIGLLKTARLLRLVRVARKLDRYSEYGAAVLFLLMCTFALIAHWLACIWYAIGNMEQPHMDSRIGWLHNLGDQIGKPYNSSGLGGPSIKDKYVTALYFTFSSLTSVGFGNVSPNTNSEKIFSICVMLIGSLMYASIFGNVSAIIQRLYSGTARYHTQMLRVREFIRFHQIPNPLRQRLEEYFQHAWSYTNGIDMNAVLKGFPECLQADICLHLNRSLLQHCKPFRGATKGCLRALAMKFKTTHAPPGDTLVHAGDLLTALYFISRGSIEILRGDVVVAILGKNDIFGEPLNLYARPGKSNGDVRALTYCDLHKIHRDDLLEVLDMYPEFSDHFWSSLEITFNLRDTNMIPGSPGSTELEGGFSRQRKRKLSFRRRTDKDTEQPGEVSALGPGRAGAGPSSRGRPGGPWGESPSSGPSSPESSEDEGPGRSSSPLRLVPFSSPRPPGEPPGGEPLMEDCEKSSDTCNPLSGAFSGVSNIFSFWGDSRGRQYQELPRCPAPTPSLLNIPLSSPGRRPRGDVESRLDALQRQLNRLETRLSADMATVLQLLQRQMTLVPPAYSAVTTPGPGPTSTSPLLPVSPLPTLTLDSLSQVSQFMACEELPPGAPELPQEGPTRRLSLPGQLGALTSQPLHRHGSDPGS

Row | Compound | IC20 | IC50
1 | C[C@@H]1CN(c2ccc(C#N)c3ncccc23)C[C@@H]2Cc3cc(N4C[C@@H]5CNCCN5C4=O)ccc3CN21 (single isomer, unassigned) [Example 17A] | > 10 µM | > 20 µM
2 | C[C@@H]1CN(c2ccc(C#N)c3ncccc23)C[C@@H]2Cc3cc(N[C@@H]4CNC[C@@H]4F)ccc3CN21 [Example 6, 5-[(4R,11aS)-4-methyl-9-[[(3R,4S)-4-fluoropyrrolidin-3-yl]amino]-1,3,4,6,11,11a-hexahydropyrazino[1,2-b]isoquinolin-2-yl]quinoline-8-carbonitrile] | > 10 µM | > 20 µM
3 | C[C@@H]1CN(c2ccc(C#N)c3ncccc23)C[C@@H]2Cc3cc(OC[C@@H]4CCN4)ccc3CN21 [Example 12, 5-[(4R,11aS)-9-[[(2S)-azetidin-2-yl]methoxy]-4-methyl-1,3,4,6,11,11a-hexahydropyrazino[1,2-b]isoquinolin-2-yl]quinoline-8-carbonitrile] | 8.2 µM | > 20 µM
